The test concerns mutant HTT protein (mHTT). Nature of the test: Homogeneous Time Resolved Fluorescence (HTRF) assay for HTT lowering. Type of test: cell-based. The following applies: reduction of mHTT in Huntington patient human cells (GENEAe020-A cell line), 48 hours incubation, mean from three replicates. The protocol:
Homogeneous Time Resolved Fluorescence for HTT lowering
The HTRF assay was adapted from Weiss et al. (Analytical Biochemistry Volume 395, Issue 1, 1 Dec. 2009, Pages 8-15 and Analytical Biochemistry Volume 410, 2011, Pages 304-306) to cells from GENEAe020-A cell line (https://hpscreg.eu/cell-line/GENEAe020-A).
Compounds were tested for the effect of mutant HTT levels in Huntington patient human cells (GENEAe020-A cell line) using Homogeneous Time Resolved Fluorescence (HTRF) directed towards mutant HTT protein (mHTT). The GENEAe020-A cell line was derived by Genea Biocells from human blastocysts of HD donors. After assessing viability, cells were plated into 384 well collagen coated plates in growth media. Once cells adhered, media was removed and test compounds dissolved in DMSO were diluted with buffer solution and added to the adherent cells. Controls included experiments with no cells, DMSO with no compound, and Hsp90 inhibitor control. Cells were incubated with compounds and controls for 48 hours. Then, the cells were lysed and transferred to an assay plate containing HTRF labeled monoclonal antibodies developed by Paul Patterson (Ko et al., Brain Research Bulletin, Volume 56, Numbers 3 and 4, 2001, Pages 319-329) which recognize specific areas of the HTT protein. The terbium labeled “donor” antibody (2B7) binds to the N-terminus of the HTT protein and the Alexa488 labeled “acceptor” antibody (MW1) is specific for the polyglutamine region of the protein. Binding of the acceptor labeled antibody is more efficient for the extended polyglutamine repeats of mutant HTT protein which translates into a signal boost which enables the specific measurement of mutant HTT protein level. The HTRF donor and acceptor detection reagents were incubated with the cell lysate and the ratio between the signals of the two fluorophores is indicative of the relative quantities of mHTT.

Each structure is given as a SMILES string. pEC50: −log10 of the molar value.

`COc1cc(-c2cc(=O)n3cc([C@H]4C[C@H]5CNC[C@@H](C4)O5)sc3n2)nn2cc(C)nc12` [Example 49, 7-(8-methoxy-2-methyl-imidazo[1,2-b]pyridazin-6-yl)-2-[rac-(1R,5S)-9-oxa-3-azabicyclo[3.3.1]nonan-7-yl]thiazolo[3,2-a]pyrimidin-5-one] gave a pEC50 of 6.70.
For `COc1cc(-c2cc(=O)n3cc([C@H]4C[C@H]5CNC[C@@H](C4)O5)sc3n2)nn2cc(C)nc12` [Example 50, 7-(8-methoxy-2-methyl-imidazo[1,2-b]pyridazin-6-yl)-2-[rac-(1S,5R)-9-oxa-3-azabicyclo[3.3.1]nonan-7-yl]thiazolo[3,2-a]pyrimidin-5-one] the value was 7.24; for `Cc1cn2nc(-c3cc(=O)n4cc([C@H]5[C@@H]6CNC[C@@H]65)sc4n3)cc(C)c2n1` [Example 55, 7-(2,8-dimethylimidazo[1,2-b]pyridazin-6-yl)-2-[rac-(1S,5R)-3-azabicyclo[3.1.0]hexan-6-yl]thiazolo[3,2-a]pyrimidin-5-one], 7.19.
For `COc1cc(-c2cc(=O)n3cc([C@]4(F)CCNC[C@H]4F)sc3n2)nn2cc(C)nc12` [Example 56, 7-(8-methoxy-2-methyl-imidazo[1,2-b]pyridazin-6-yl)-2-[(3R,4S)-3,4-difluoro-4-piperidyl]thiazolo[3,2-a]pyrimidin-5-one], the pEC50 was 7.30. The pEC50 values of the last two molecules are within 0.2 log units of each other.
The figure for `COc1cc(-c2cc(=O)n3cc([C@]4(F)CCNC[C@@H]4F)sc3n2)nn2cc(C)nc12` [Example 57, 7-(8-methoxy-2-methyl-imidazo[1,2-b]pyridazin-6-yl)-2-[(3S,4S)-3,4-difluoro-4-piperidyl]thiazolo[3,2-a]pyrimidin-5-one] is 6.62.
For `COc1cc(-c2cc(=O)n3cc([C@@]4(F)CCNC[C@H]4F)sc3n2)nn2cc(C)nc12` [Example 58, 7-(8-methoxy-2-methyl-imidazo[1,2-b]pyridazin-6-yl)-2-[(3R,4R)-3,4-difluoro-4-piperidyl]thiazolo[3,2-a]pyrimidin-5-one] the value was 7.00.
The figure for `COc1cc(-c2cc(=O)n3cc([C@@]4(F)CCNC[C@@H]4F)sc3n2)nn2cc(C)nc12` [Example 59, 7-(8-methoxy-2-methyl-imidazo[1,2-b]pyridazin-6-yl)-2-[(3S,4R)-3,4-difluoro-4-piperidyl]thiazolo[3,2-a]pyrimidin-5-one] is 6.37.

The values above are taken from patent publication US20240018163A1, “NEW THIAZOLOPYRIMIDINONE DERIVATIVES” (Hoffmann-La Roche Inc., priority 2021, published 2024).
